From patent US20230331803A1, “CO-AGONISTS OF THE GLP-1 AND AMYLIN RECEPTORS” (priority 2020, published 2023)
Read-outs that look alike come from different tables or passages of the source. Starred links: 1 amine or outer side, 2 acyl side, 3 side chain; linkers in the order of their positions; H or OH if unused. Non-standard residues stand in square brackets, D forms with d. Groups on a side chain read outwards from the residue. *: point of attachment. X1 = O=C(O)CCCCCCCCCCCCCCC(=O)N[C@@H](CCC(=O)NCCOCCOCC(=O)NCCOCCOCC(=O)NCCCC[C@H](NC(=O)COCCOCCNC(=O)COCCOCCNC(=O)CC[C@H](NC(=O)CCCCCCCCCCCCCCC(=O)O)C(=O)O)C(=O)*)C(=O)O; Decanoyl(10-(4-HOOC-PhO)) = O=C(O)c1ccc(OCCCCCCCCCC(=O)*)cc1; Hexadecanoyl(16-SO3H) = O=C(CCCCCCCCCCCCCCCS(=O)(=O)O)*; C20 diacid = O=C(O)CCCCCCCCCCCCCCCCCCC(=O)*; C18 diacid = O=C(O)CCCCCCCCCCCCCCCCC(=O)*; C16 diacid = O=C(O)CCCCCCCCCCCCCCC(=O)*; γGlu = O=C(O)[C@H](CCC(=O)[*:2])N[*:1]; C14 diacid = O=C(O)CCCCCCCCCCCCC(=O)*; Desaminohistidyl = O=C(CCc1c[nH]cn1)*; εLys = N[C@@H](CCCCN[*:1])C(=O)[*:2]; Trx = NC[C@H]1CC[C@H](C(=O)O)CC1; AEEA = NCCOCCOCC(=O)O; Aib = CC(C)(N)C(=O)O

Experiments:
[1] = molecular target: T1, human amylin receptor (hAmyR3) (Homo sapiens, UniProt O60896+P30988); test: Human amylin receptor in vitro potency assay (CRE-luciferase reporter, BHK cells); format: cell-based;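 also: BHK cells expressing human calcitonin receptor plus RAMP3 (amylin-3 receptor) with a CRE-luciferase reporter, agonist activity read as luminescence from cAMP-driven transcription, 7-point serial dilutions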
T1 construct: host or cells: BHK cells (Hollex-1 line: human calcitonin receptor (a) + CRE-Luc), further transfected with human RAMP3

[2] = Pharmacokinetic studies in Beagle dogs after oral administration of SNAC-based tablets; format: in vivo; conditions: dog, in vivo, po
Description: To be able to evaluate oral exposure following tablet dosing, tablet compositions comprising the test substance and SNAC (sodium N-(8-(2-hydroxybenzoyl)amino)caprylate) were prepared by mixing test substance with roller compacted SNAC and magnesium stearate as, e.g., described in WO 2019/149880. The amount of SNAC in the tablet composition was 100-300 mg, the amount of magnesium stearate in the tablet composition was 7.7 mg, and the target amount of each test substance in the tablet composition was 3-4 mg.
Pharmacokinetic (PK) studies in Beagle dogs were conducted to determine the exposure of the GLP-1 receptor-amylin receptor co-agonist after peroral administration.
For the pharmacokinetic studies male Beagle dogs were used, 2-7, or 1 to 5, years of age and weighing approximately 10-15, such as 10-12, kg at the start of the studies. The dogs were group housed in pens (12 hours light: 12 hours dark),and fed individually and restrictedly once daily with Royal Canin Medium Adult dog (Royal Canin Products, China Branch, or Brogaarden A/S, Denmark). Exercise and group social were permitted daily, whenever possible. The dogs were used for repeated pharmacokinetic studies with a suitable wash-out period between successive dosing. An appropriate acclimatisation period was given prior to initiation of the first pharmacokinetic study. All handling, dosing and blood sampling of the animals were performed by trained and skilled staff. Before the studies the dogs were fasted overnight and from 0 to 4 h after dosing. Besides, the dogs were restricted to water 1 hour before dosing until 4 hours after dosing, but otherwise have ad libitum access to water during the whole period.
The tablets used for the p.o. studies described herein were immediate release SNAC-based tablets dosed orally.
The tablets were administered in the following manner: 10 min prior to tablet administration the dogs may be dosed subcutaneously with approximately 3 nmol/kg of SEQ ID NO: 237, tablets were placed in the back of the mouth of the dog to prevent chewing. The mouth was then closed, and 10 mL of tap water was given by a syringe or gavage to facilitate swallowing of the tablet.
Blood was sampled at predefined time points for up till 240 hours, such as up till 10 hr, post dosing to adequately cover the full plasma concentration-time absorption profile of the GLP-1 agonist.
For each blood sampling time point approximately 0.8 mL of whole blood was collected in a 1.5 mL EDTA coated tube, and the tube was gently turned to allowing mixing of the sample with the EDTA. Blood samples (for example 0.8 mL) were collected in EDTA buffer (8 mM) and then centrifuged at 4° C. and 2000 G for 10 minutes. Plasma was pipetted into Micronic tubes on dry ice, and kept at -20° C. until analysis.
Blood samples were taken as appropriate, for example from a venflon in the cephalic vein in the front leg for the first 2 hours and then with syringe from the jugular vein for the rest of the time points (the first few drops were allowed to drain from the venflon to avoid heparin saline from the venflon in the sample).
Plasma concentration of the GLP-1 receptor-amylin receptor co-agonists were determined using LCMS. Individual plasma concentration-time profiles were analysed by a non-compartmental model in WinNonlin v. 5.0 or Phoenix v. 6.2 or 6.3 (Pharsight Inc., Mountain View, CA, USA), or other relevant software for PK analysis.
The individual plasma concentration-time profiles were analysed by non-compartmental analysis (NCA).

human GLP-1 receptor = molecular target: T2, human GLP-1 receptor (Homo sapiens, UniProt P43220); test: Human GLP-1 receptor in vitro potency assay (CRE-luciferase reporter, BHK cells); format: cell-based
T2 construct: expressed in transfected cells; host or cells: BHK (Baby Hamster Kidney) cells, clone BHK 467-12A KZ-10, stably transfected, with CRE-luciferase reporter
Description: It is thus possible to measure GLP-1 receptor activity using a CRE-luciferase reporter gene introduced into Baby Hamster Kidney (BHK) cells co-expressing the GLP-1 receptor.
Cells were aliquoted and stored at -180° C. until use.
Plates were sealed and incubated at room temperature with gentle shaking for 30 minutes while protected from light. Luminescence was detected on a luminescence plate reader e.g. a Synergy 2 (BioTek).

[3] = Table 4a, BHK hAmyR3/CRE-Luc cells, 3 hours, read-out: Human AmyR3 potency [EC50 (pM)]
[4] = Table 4a, BHK cells expressing human GLP-1R, CRE-Luc, 3 hours, read-out: Human GLP-1R potency [EC50 (pM)]

T1 sequence (P30988 25-474): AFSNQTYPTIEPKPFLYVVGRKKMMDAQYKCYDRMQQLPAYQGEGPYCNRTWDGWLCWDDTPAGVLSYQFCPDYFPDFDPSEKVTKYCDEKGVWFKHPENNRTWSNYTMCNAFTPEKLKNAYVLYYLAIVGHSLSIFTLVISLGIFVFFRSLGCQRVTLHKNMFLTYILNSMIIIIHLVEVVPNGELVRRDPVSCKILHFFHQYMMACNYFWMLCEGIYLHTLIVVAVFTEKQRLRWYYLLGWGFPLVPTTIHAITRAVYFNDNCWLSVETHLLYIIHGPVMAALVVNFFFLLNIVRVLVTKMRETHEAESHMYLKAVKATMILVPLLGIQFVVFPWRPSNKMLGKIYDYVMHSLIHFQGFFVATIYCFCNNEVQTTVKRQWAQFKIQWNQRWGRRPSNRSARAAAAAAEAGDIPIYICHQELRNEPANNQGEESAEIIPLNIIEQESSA
T1 sequence (O60896 24-148): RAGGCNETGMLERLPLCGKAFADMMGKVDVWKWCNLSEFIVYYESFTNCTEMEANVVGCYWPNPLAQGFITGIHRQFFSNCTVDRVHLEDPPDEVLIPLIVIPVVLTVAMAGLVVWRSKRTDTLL
T2 sequence (P43220 24-463): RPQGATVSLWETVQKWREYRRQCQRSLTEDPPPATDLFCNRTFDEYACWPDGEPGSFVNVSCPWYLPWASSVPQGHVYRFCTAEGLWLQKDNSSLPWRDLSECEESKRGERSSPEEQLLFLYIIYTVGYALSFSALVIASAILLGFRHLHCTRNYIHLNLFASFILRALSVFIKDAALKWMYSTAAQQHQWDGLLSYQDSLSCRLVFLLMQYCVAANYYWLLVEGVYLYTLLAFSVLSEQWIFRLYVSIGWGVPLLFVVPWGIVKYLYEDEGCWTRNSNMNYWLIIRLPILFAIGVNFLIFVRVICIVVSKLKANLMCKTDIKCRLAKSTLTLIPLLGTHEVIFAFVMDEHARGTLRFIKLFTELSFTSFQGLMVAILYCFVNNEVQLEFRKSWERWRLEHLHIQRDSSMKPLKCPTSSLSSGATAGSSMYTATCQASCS

Row | Molecule | EC50 [1, 3] | EC50 (human GLP-1 receptor; [4]) | further results
1 | H-H[Aib]EGTFTSDVSSYLEEQAARK([AEEA-AEEA-γGlu-C20 diacid])FIAWLVRGGASELSTAALGRLSAELHELATLPRTETGSGSP-NH2 [Compound 0580] | 9.3 pM | 7.4 pM | AUC/D [2]: 12.77 kg·h/L; Cmax/D [2]: 0.38 kg/L; Tmax ([2]; male, Beagle, Tmax (hr)): 2 h; half-life ([2]; male, Beagle, T½ (hr)): 39 h
2 | CC[C@H](C)[C@H](NC(=O)[C@H](Cc1ccccc1)NC(=O)[C@H](CCC(=O)O)NC(=O)[C@H](CCCCNC(=O)COCCOCCNC(=O)COCCOCCNC(=O)CC[C@H](NC(=O)CCCCCCCCCCCCCCCCC(=O)O)C(=O)O)NC(=O)[C@H](C)NC(=O)[C@H](C)NC(=O)[C@H](CCC(N)=O)NC(=O)CNC(=O)[C@H](CCC(=O)O)NC(=O)[C@H](CC(C)C)NC(=O)[C@H](Cc1ccc(O)cc1)NC(=O)[C@H](CO)NC(=O)[C@H](CO)NC(=O)[C@@H](NC(=O)[C@H](CC(=O)O)NC(=O)[C@H](CO)NC(=O)[C@@H](NC(=O)[C@H](Cc1ccccc1)NC(=O)[C@@H](NC(=O)CNC(=O)[C@H](CCC(=O)O)NC(=O)C(C)(C)NC(=O)[C@@H](N)Cc1c[nH]cn1)[C@@H](C)O)[C@@H](C)O)C(C)C)C(=O)N[C@@H](C)C(=O)N[C@@H](Cc1c[nH]c2ccccc12)C(=O)N[C@@H](CC(C)C)C(=O)N[C@H](C(=O)N[C@@H](CCCNC(=N)N)C(=O)NCC(=O)N[C@@H](CCCNC(=N)N)C(=O)NCC(=O)NCC(=O)N[C@@H](CCC(N)=O)C(=O)N[C@@H](CCC(=O)O)C(=O)N[C@@H](CCCCNC(=O)COCCOCCNC(=O)COCCOCCNC(=O)CC[C@H](NC(=O)CCCCCCCCCCCCCCCCC(=O)O)C(=O)O)C(=O)NCC(=O)N[C@@H](CCC(N)=O)C(=O)N[C@@H](CCC(=O)O)C(=O)N1CCC[C@H]1C(=O)N[C@@H](CCC(=O)O)C(=O)N[C@@H](C)C(=O)N[C@@H](CO)C(=O)N[C@@H](CCC(=O)O)C(=O)N[C@@H](CC(C)C)C(=O)N[C@@H](CO)C(=O)N[C@H](C(=O)N[C@@H](C)C(=O)N[C@@H](C)C(=O)N[C@@H](CC(C)C)C(=O)NCC(=O)N[C@@H](CCCNC(=N)N)C(=O)N[C@@H](CC(C)C)C(=O)N[C@@H](CO)C(=O)N[C@@H](C)C(=O)N[C@@H](CCC(=O)O)C(=O)N[C@@H](CC(C)C)C(=O)N[C@@H](Cc1c[nH]cn1)C(=O)N[C@@H](CCC(=O)O)C(=O)N[C@@H](CC(C)C)C(=O)N[C@@H](C)C(=O)N[C@H](C(=O)N[C@@H](CC(C)C)C(=O)N1CCC[C@H]1C(=O)N[C@@H](CCCNC(=N)N)C(=O)N[C@H](C(=O)N[C@@H](CCC(=O)O)C(=O)N[C@H](C(=O)NCC(=O)N[C@@H](CO)C(=O)NCC(=O)N[C@@H](CO)C(=O)N1CCC[C@H]1C(N)=O)[C@@H](C)O)[C@@H](C)O)[C@@H](C)O)[C@@H](C)O)C(C)C [Compound 0057] | – | – | EC50 [1]: 165 pM; EC50 (human GLP-1 receptor): 59 pM
3 | H-H[Aib]EGTFTSDVSSYLEGQAAK([AEEA-AEEA-γGlu-C20 diacid])EFIAWLVRGRGGGGGGGGGEASELSTAALGRLSAELHELATLPRTETGSGSP-NH2 [Compound 0094] | 11.3 pM | 7.5 pM | –
4 | H-H[Aib]EGTFTSDVSSYLEEK([AEEA-AEEA-γGlu-C16 diacid])AAREFIAWLVRGRGGGGGASELSTAALGRLSK([AEEA-AEEA-γGlu-C16 diacid])ELHELATLPRTETGSGSP-NH2 [Compound 0295] | 32.7 pM | 4.8 pM | –
5 | HWEGTFTSDVSSYLEEQAAREFIAWLVRGRK([AEEA-AEEA-γGlu-C18 diacid])GGGGEASELSTAALGRLSAELHELATLPRTETGSGSP-NH2 [Compound 0648] | 9.2 pM | 17 pM | –
6 | H-H[Aib]EGTFTSDVSSYLEGQAAK([AEEA-AEEA-γGlu-C18 diacid])EFIAWLVRGRGGGGGGGGGGGGGGGGGEASELSTAALGRLSAELHELATLPRTETGSGSP-NH2 [Compound 0093] | 8.6 pM | 7.5 pM | –
7 | H[Aib]EGTFTSDVSSYLEEQAARK([AEEA-AEEA-γGlu-C18 diacid])FIAWLVRGK([AEEA-AEEA-γGlu-C18 diacid])GGGGGGGGGEASELSTAALGRLSAELHELATLPRTETGSGSP-NH2 [Compound 0109] | 19.1 pM | 3.2 pM | –
8 | H-H[Aib]EGTFTSDVSSYLEEQAAREFIAWLVRGRK([εLys-εLys-γGlu-C20 diacid])GGGGEASELSTAALGRLSAELHELATLPRTETGSGSP-NH2 [Compound 0657] | 10.4 pM | 9.9 pM | –
9 | H-HGEGTFTSDVSSYLEEQAARK([AEEA-AEEA-γGlu-C14 diacid])FIEWLVRGK([AEEA-AEEA-γGlu-C14 diacid])GEASELSTAALGRLSAELHELATLPRTETGSGSP-NH2 [Compound 0039] | 59.5 pM | 34.8 pM | –
10 | H-H[Aib]EGTFTSDVSSYLEEQAARK([AEEA-AEEA-γGlu-C16 diacid])FIEWLVRGK([AEEA-AEEA-γGlu-C16 diacid])GEGGEASELSTAALGRLSAELHELATLPRTETGSGSP-NH2 [Compound 0086] | 78.3 pM | 3.9 pM | –
11 | H-H[Aib]EGTFTSDVSSYLEGQAAK([AEEA-AEEA-γGlu-C18 diacid])EFIAWLVRGRGGGGGGGGGGGGGEASELSTAALGRLSAELHELATLPRTETGSGSP-NH2 [Compound 0092] | 10.9 pM | 18.5 pM | –
12 | H-H[Aib]EGTFTSDVSSYLEEQAAREFIAWLVRGRK([AEEA-AEEA-γGlu-Hexadecanoyl(16-SO3H)])GGGGEASELSTAALGRLSAELHELATLPRTETGSGSP-NH2 [Compound 0654] | 11.3 pM | 2.9 pM | –
13 | H-Aib-EGTFTSDVSSYLEEQAAREFIAWLVRGR-K([2-[2-[2-[[2-[2-[2-[[(4S)-4-Carboxy-4-(17-Carboxyheptadecanoylamino)Butanoyl]Amino]Ethoxy]Ethoxy]Acetyl]Amino]Ethoxy]Ethoxy]Acetyl])-GGGGEKCNTATCATQRLAEFLRHSSNNFGPILPPTNVGSNTP-amide [Comparator compound 0672, reference compound] | – | – | EC50 ([1]; Table 4b, reference and comparator compounds, read-out: Human AmyR3 potency [EC50 (pM)]): 606 pM; Ability to agonise the amylin receptor, in words ([1]; Tables 4a-4c): impaired potency on the amylin receptor; Ability to agonise the GLP-1 receptor, in words (human GLP-1 receptor; Tables 4a-4c): retained their potencies on the GLP-1 receptor; EC50 (human GLP-1 receptor; read-out: Human GLP-1 R potency [EC50 (pM)], Table 4b, reference and comparator compounds): 2.2 pM
14 | H-HAEGTFTSDVSSYLEEK([AEEA-AEEA-γGlu-Trx-C20 diacid])AAREFIEWLVRGRGEASELSTAALGRLSAELHELATLPRTETGSGSP-NH2 [Compound 0414] | 17.7 pM | 11.2 pM | –
15 | H-H[Aib]EGTFTSDVSSYLEEK([AEEA-AEEA-γGlu-C16 diacid])AAREFIAWLVRGRGGGGGEASELSTAALGRLSAELHELATLK([AEEA-AEEA-γGlu-C16 diacid])RTETGSGSP-NH2 [Compound 0397] | 18.5 pM | 3.8 pM | –
16 | HGEGTFTSDVSSYLEEQAARK([AEEA-AEEA-γGlu-Decanoyl(10-(4-HOOC-PhO))])FIEWLVRGK([AEEA-AEEA-γGlu-Decanoyl(10-(4-HOOC-PhO))])GEGGGGGEASELSTAALGRLSAELHELATLPRTETGSGSP-NH2 [Compound 0097] | – | – | EC50 [1]: 93.1 pM; EC50 (human GLP-1 receptor): 10 pM
17 | Desaminohistidyl-AEGTFTSDVSSYLEEQAAREFIAWLVRGRK([AEEA-AEEA-γGlu-C18 diacid])EASELSTAALGRLSAELHELATLPRTETGSGSP-NH2 [Compound 0051] | 19.5 pM | 14.3 pM | –
18 | H-H[Aib]EGTFTSDVSK([AEEA-X1])YLEEQAAREFIAWLVRGRGGGGGEASELSTAALGRLSAELHELATLPRTETGSGSP-NH2 [Compound 0564] | 14.5 pM | 24.5 pM | –
19 | H-H[Aib]EGTFTSDVSSYLEEQAAREFIAWLVRGK([AEEA-AEEA-γGlu-C16 diacid])GGGGGEASELSTAALGRLSAELHELK([AEEA-AEEA-γGlu-C16 diacid])TLPRTETGSGSP-NH2 [Compound 0281] | 114 pM | 35.2 pM | –
